The experiment concerns WT HeLa cells expressing TDP-4FL. Briefly: Immunofluorescence of TDP-4FL inclusion morphology, WT HeLa. It is filed as cell-based. The conditions noted are these: for TDP-4FL inclusion size and morphology upon proteasome inhibition: 4 μM MG132, 1 μM ixazomib or 1 μM epoxomicin, 3 or 6 hours. The method, then: HeLa Cells were plated onto glass coverslips and transfected with TDP-4FL using Fugene HD for 24 hours. Cells were fixed with 4% paraformaldehyde (Electron Microscopy Sciences), permeabilized with 0.1% Triton-X (Thermo Fisher Scientific), and blocked with 2% FBS DPBS. Primary antibodies were diluted in 2% FBS DPBS. Cells were stained with 300 nM DAPI, and coverslips were mounted onto glass slides using ProLong Glass Antifade Mountant (Thermo Fisher Scientific). Confocal images were obtained using a Leica TCS SPE laser scanning confocal microscope.
(A) High power magnification immunofluorescence confocal images of HeLa cells expressing TDP-4FL stained for myc-TDP (green) Scale bar, 5 µm. […]
(C) Representative confocal microscopy immunofluorescence confocal images of HeLa cells […]
yellow represent cells that were categorized as anisosome morphology. Nuclei outline in white represent cells that were categorized as aggregate morphology. Cells with approximately more than 50% anisosome inclusions were categorized as anisosome morphology whereas cells with approximately more than 50% aggregate-like inclusions were categorized as aggregate morphology. Binucleate cells were excluded from the total counts. Scale bar, 10 µm.
(1 picture or pasted object on this page, not shown here)

3 compounds from PMC11257039, “VCP activator reverses nuclear proteostasis defects and enhances TDP-43 aggregate clearance in multisystem proteinopathy models” (The Journal of Clinical Investigation, 2024) can be followed below.

With `CC(C)C[C@H](NC(=O)CNC(=O)c1cc(Cl)ccc1Cl)B(O)O` [ixazomib], the “TDP-4FL inclusion size and morphology upon proteasome inhibition” value is listed as “generating larger TDP-4FL inclusions”. Consider `CC[C@H](C)[C@H](NC(=O)[C@H]([C@@H](C)CC)N(C)C(C)=O)C(=O)N[C@H](C(=O)N[C@@H](CC(C)C)C(=O)[C@@]1(C)CO1)[C@@H](C)O` [epoxomicin], for which the “TDP-4FL inclusion size and morphology upon proteasome inhibition” value is recorded as “generating larger TDP-4FL inclusions”. In the case of `Cc1cc2c(C(N)=O)cccc2n1-c1nc2c(c(NCc3ccccc3)n1)COCC2` [CB5083], the TDP-4FL aggregate formation result was “no effect on TDP-4FL aggregate formation” and the “TDP-4FL inclusion morphology after recovery” value was “residual irregularly shaped intranuclear TDP-4FL aggregates”.
